Data from patent US20140011781A1, “METHOD FOR TREATING OR […] USING TESTIS EXTRACT AS ACTIVE INGREDIENT” (Industry-Academic Cooperation Foundation, Yeungnam …, priority 2009, published 2014).

Tests used:
Assay type in all cases: in vivo, CD-1 mouse
[1] = system: CD34 hematopoietic stem cells in bone marrow; assay: Numerical change of CD34-marked hematopoietic stem cell using FACS; details: 0.1% extract or nandrolone injected to mice, femur bone marrow
Procedure: (§1) Next, the pig testis extracts M1 and M2 were dissolved with first solvent of 100% ethanol, and then sesame oil was added to prepare at a concentration of 1 g/ml. 100% was defined as 100-fold diluted one with the sesame oil, and then the sample was used by diluting to be a concentration of 0.1%, 1%, 10% or 50%. Each concentration (0.1%, 1%, 10%, 50% or 100%) of the pig testis extract was subcutaneously injected to CD-1 mouse of 6 to 8-week raised under physiological condition for 21 days (6 mice per each group).
In the Experimental Example, CD34, which is a marker for hematopoietic stem cell, was used in order to confirm whether a pig testis extract stimulates proliferation of hematopoietic stem cells, or not. Each of 0.1% pig testis extracts M1 and M2 was injected to the mice as the above Experimental Example; then the mice were scarified; their femurs were collected; and then bone marrows were extracted by using PBS solution.
Since then, after reacting with CD34 specific antibody, CD34 hematopoietic stem cells were counted for the analysis by using a fluorescent activated cell sorter.

[2] = system: red blood cell in peripheral blood; assay: Numerical change of RBC in peripheral blood; details: 0.1% extract or nandrolone injected to mice
Procedure: as §1
Peripheral bloods were obtained after treating each of 0.1% pig testis extracts M1 and M2 under the same condition as the above Experimental Example. Since then, the number of RBC (Red Blood Cell) was counted by using an analyzer.

reproductive period = assay: Analysis of reproductive period change by vaginal smearing; details: during 21 days of subcutaneous injection, female CD-1 mice; nandrolone 3 mg/kg BW; compared with sesame oil control
Procedure: as §1
As mentioned above, each concentration of the pig testis extract was subcutaneously injected to 6-health CD-1 female mice raised under physiological condition for 21 days. Vaginal smearing was performed to analyze reproductive period change during an injection. As a control group, the mice injected with only sesame oil and the mice injected with only 19-nortestosterone (3 mg/kg BW) were used to analyze the effects. At 21 days after treating, the mice were anesthetized with sodium pentobarbital and then their peripheral bloods were collected. And immediately, the mice were sacrificed by a luxation of the cervical vertebral, and a femur for obtaining bone marrow and liver tissue, ovary, and uterus for analyzing cytotoxicity were removed. Some of them were fixed for a histological analysis and some of them were stored at a deep-freezer of −80° C. […]

Structure (SMILES): C[C@]12CC[C@H]3[C@@H](CCC4=CC(=O)CC[C@@H]43)[C@@H]1CC[C@@H]2O [nandrolone]
- number of CD34 hematopoietic stem cell in bone marrow [1]: significantly increased
- number of RBC in peripheral blood compared with control group [2]: significantly increased
- progress of reproductive period (vaginal smearing) (reproductive period): gradually irregular
